The source of these data is patent publication US11739098B2 (BRISTOL-MYERS SQUIBB COMPANY, priority 2017, dated 2023).

pIC50: −log10 of the molar value.

A word on the pIC50: it is −log10 of the IC50, conventionally taken in molar units. Higher therefore signals a small IC50.

Common to all, as to type: cell-based
The target in one experiment is T1, human TLR8 (Homo sapiens, UniProt Q9NR97).
T1 construct: host or cells: HEK-Blue cells (HEK293-derived reporter line)
T1 sequence (Q9NR97 27-1041): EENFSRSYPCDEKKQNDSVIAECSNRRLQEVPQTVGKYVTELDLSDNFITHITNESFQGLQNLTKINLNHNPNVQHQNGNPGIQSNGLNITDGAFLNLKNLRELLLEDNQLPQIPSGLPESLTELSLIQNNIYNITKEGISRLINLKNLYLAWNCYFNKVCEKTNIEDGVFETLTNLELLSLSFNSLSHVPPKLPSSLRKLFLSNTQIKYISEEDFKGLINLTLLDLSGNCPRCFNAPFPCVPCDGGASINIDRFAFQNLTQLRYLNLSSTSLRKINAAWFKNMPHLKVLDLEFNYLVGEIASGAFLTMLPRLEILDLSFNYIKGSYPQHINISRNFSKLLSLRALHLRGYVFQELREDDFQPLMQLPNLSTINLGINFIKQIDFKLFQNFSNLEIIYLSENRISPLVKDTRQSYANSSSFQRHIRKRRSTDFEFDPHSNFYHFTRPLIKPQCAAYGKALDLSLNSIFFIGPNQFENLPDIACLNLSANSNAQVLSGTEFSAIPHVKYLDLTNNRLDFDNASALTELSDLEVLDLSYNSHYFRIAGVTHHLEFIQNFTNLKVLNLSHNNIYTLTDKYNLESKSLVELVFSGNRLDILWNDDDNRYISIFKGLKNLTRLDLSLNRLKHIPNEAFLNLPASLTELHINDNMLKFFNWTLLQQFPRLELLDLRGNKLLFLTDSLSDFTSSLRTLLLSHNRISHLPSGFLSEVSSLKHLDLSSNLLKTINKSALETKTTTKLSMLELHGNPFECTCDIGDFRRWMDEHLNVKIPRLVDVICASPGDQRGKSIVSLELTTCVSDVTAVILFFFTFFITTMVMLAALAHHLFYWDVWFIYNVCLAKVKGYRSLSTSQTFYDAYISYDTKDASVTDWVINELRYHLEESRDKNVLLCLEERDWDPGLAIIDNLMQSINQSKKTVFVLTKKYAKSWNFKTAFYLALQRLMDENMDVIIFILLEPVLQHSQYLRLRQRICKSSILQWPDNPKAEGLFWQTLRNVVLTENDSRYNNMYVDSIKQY
The experiment is described as follows: TLR8 inhibition reporter assay (HEK-Blue cells, SEAP reporter, R848 stimulation). Conditions: HEK-Blue cells overexpressing human TLR8, SEAP reporter, R848 15.9 μM. In a few lines:
(§1)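 After 22 h at 37 °C, SEAP secretion was measured from human TLR7-, TLR8- or TLR9-expressing HEK-Blue reporter cells given compound (0.05 nM–50 μM) 30 min before agonist: 7.5 μM gardiquimod, 15.9 μM R848 or 5 nM ODN2006 respectively. Percent inhibition referenced to agonist-plus-DMSO and known-inhibitor wells.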

The target in a further experiment is T2, human TLR7 (Homo sapiens, UniProt Q9NYK1).
T2 construct: host or cells: HEK-Blue cells (HEK293-derived reporter line)
T2 sequence (Q9NYK1 27-1049): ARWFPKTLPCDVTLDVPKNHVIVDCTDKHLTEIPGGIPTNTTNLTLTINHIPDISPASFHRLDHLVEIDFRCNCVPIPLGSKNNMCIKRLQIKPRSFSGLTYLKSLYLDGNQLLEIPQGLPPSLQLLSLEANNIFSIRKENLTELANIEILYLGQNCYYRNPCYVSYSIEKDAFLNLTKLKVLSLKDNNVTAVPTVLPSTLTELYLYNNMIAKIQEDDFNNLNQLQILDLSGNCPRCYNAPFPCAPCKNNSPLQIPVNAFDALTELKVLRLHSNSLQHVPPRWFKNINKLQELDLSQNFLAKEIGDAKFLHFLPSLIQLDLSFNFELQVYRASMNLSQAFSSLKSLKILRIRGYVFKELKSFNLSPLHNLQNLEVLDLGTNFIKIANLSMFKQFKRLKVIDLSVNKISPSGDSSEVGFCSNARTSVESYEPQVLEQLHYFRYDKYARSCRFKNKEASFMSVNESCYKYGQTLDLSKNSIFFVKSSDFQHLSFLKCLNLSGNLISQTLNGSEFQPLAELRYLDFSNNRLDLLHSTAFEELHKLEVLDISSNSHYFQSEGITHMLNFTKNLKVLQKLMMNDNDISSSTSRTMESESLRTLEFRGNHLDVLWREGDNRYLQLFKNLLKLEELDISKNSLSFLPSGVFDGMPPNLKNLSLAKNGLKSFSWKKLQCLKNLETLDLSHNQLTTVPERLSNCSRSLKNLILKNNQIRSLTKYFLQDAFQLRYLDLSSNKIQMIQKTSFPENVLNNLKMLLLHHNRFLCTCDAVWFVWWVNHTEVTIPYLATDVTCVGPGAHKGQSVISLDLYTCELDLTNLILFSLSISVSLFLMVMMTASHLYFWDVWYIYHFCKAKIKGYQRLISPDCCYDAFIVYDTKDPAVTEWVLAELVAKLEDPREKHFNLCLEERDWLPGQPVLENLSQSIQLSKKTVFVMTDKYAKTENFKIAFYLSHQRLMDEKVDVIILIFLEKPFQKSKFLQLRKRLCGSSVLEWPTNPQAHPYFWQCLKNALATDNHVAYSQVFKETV
The experiment is described as follows: TLR7 inhibition reporter assay (HEK-Blue cells, SEAP reporter, gardiquimod stimulation). The conditions noted are these: HEK-Blue cells overexpressing human TLR7, SEAP reporter, gardiquimod 7.5 μM. In short, it runs like this:
as §1
(Reporter assays use an easily measured gene product as a stand-in for the process of interest.)

The next experiment concerns the target T3, human TLR9 (Homo sapiens, UniProt Q9NR96).
T3 construct: host or cells: HEK-Blue cells (HEK293-derived reporter line)
T3 sequence (Q9NR96 26-1032): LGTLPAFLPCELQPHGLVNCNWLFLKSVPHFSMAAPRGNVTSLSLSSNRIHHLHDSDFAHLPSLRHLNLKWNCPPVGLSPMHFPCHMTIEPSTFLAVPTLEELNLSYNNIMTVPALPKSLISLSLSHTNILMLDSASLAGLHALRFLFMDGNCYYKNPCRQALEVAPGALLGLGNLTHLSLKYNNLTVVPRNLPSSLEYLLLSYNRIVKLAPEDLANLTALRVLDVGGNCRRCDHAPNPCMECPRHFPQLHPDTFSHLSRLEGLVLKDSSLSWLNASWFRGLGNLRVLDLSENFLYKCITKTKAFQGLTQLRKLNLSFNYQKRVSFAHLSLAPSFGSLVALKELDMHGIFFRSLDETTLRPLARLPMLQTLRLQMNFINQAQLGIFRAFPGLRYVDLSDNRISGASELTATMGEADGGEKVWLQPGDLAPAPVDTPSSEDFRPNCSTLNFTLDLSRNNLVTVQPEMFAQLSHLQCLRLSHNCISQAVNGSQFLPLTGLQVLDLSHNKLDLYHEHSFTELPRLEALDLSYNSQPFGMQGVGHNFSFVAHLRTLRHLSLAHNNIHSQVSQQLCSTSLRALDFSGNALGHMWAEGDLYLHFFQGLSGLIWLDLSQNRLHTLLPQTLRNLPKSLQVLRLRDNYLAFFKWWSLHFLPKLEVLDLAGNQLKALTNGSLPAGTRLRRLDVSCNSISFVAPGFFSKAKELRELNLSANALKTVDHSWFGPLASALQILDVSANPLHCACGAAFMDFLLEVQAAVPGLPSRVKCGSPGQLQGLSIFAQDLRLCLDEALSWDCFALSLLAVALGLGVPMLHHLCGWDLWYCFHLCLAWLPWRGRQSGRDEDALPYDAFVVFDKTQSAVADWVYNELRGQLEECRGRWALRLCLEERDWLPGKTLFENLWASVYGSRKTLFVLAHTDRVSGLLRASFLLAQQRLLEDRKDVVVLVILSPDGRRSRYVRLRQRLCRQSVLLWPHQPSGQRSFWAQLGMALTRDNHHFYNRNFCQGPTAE
Description: TLR9 inhibition reporter assay (HEK-Blue cells, SEAP reporter, ODN2006 stimulation). Conditions: HEK-Blue cells overexpressing human TLR9, SEAP reporter, ODN2006 5 nM. In a few lines:
as §1

On to `CCc1c(-c2ccnc3[nH]ncc23)[nH]c2ccc(C3CCNCC3F)cc12` (stereo not drawn) [Example 177, 4-(3-ethyl-5-(3-fluoropiperidin-4-yl)-1H-indol-2-yl)-1H-pyrazolo[3,4-b]pyridine], for which the pIC50 was greater than 7.00 at human TLR8, greater than 7.00 on human TLR7 and 4.30 to 6.00 against human TLR9.
`FC(F)Cc1c(-c2ccnc3[nH]ncc23)[nH]c2ccc(C3CCNCC3)cc12` [Example 178, 4-(3-(2,2-difluoroethyl)-5-(piperidin-4-yl)-1H-indol-2-yl)-1H-pyrazolo[3,4-b]pyridine]: the values for the negative logarithm of the IC50 (pIC50) against human TLR8, on human TLR7 and on human TLR9 were 6.00 to 7.00, 6.00 to 7.00 and 4.30 to 6.00, respectively.
In the case of `CC(C)c1c(-c2cc3cn[nH]c3cn2)[nH]c2ccc(C3CCNCC3)cc12` [Example 179, 5-(3-isopropyl-5-(piperidin-4-yl)-1H-indol-2-yl)-1H-pyrazolo[3,4-c]pyridine], the figures for the pIC50 against human TLR8, against human TLR7 and on human TLR9 were greater than 7.00, greater than 7.00 and 4.30 to 6.00, respectively.
In the case of `CCc1c(-c2cnc3[nH]c(=O)[nH]c3c2)[nH]c2ccc(C3CCNCC3)cc12` [Example 180, 6-(3-ethyl-5-(piperidin-4-yl)-1H-indol-2-yl)-1,3-dihydro-2H-imidazo[4,5-b]pyridin-2-one], the pIC50 against human TLR8, against human TLR7 and on human TLR9 was 4.30 to 6.00 each time.
Turning to `CC(C)c1c(-c2cnc3ccnn3c2)[nH]c2ccc(C3CCNCC3)cc12` [Example 181, 6-(3-isopropyl-5-(piperidin-4-yl)-1H-indol-2-yl)pyrazolo[1,5-a]pyrimidine], the pIC50 is less than 5.51 against human TLR8, 4.30 to 6.00 against human TLR7 and 4.30 to 6.00 on human TLR9.
Take `CCc1c(-c2cccc3[nH]ncc23)[nH]c2ccc(C3CCNCC3)cc12` [Example 182, 4-(3-ethyl-5-(piperidin-4-yl)-1H-indol-2-yl)-1H-indazole]: the pIC50 on human TLR8, on human TLR7 and against human TLR9 was 4.30 to 6.00 throughout.
Turning to `CC(C)c1c(-c2ccc3cncn3c2)[nH]c2ccc(C3CCNCC3)cc12` [Example 183, 6-(3-isopropyl-5-(piperidin-4-yl)-1H-indol-2-yl)imidazo[1,5-a]pyridine], the pIC50 was 6.00 to 7.00 at human TLR8, 6.00 to 7.00 on human TLR7 and 4.30 to 6.00 against human TLR9.
`CCc1c(-c2ccc3nncn3n2)[nH]c2ccc(C3CCNCC3)cc12` [Example 184, 6-(3-ethyl-5-(piperidin-4-yl)-1H-indol-2-yl)-[1,2,4] triazolo[4,3-b]pyridazine]: the pIC50 on human TLR8, against human TLR7 and on human TLR9 was 6.00 to 7.00 each time.
With `CC(C)c1c(-c2ccc3nncn3n2)[nH]c2ccc(C3CCNCC3)cc12` [Example 185, 6-(3-isopropyl-5-(piperidin-4-yl)-1H-indol-2-yl)-[1,2,4] triazolo[4,3-b]pyridazine], the pIC50 against human TLR8 is 6.00 to 7.00; against human TLR7 it was 6.00 to 7.00; on human TLR9, 4.30 to 6.00.
Turning to `CCc1c(-c2cc3ccccc3o2)[nH]c2ccc(C3CCNCC3)cc12` [Example 186, 2-(benzofuran-2-yl)-3-ethyl-5-(piperidin-4-yl)-1H-indole], the pIC50 on human TLR8, on human TLR7 and against human TLR9 was 4.30 to 6.00 each time.
On to `CCc1c(-c2cnc3cccnn23)[nH]c2ccc(C3CCNCC3)cc12` [Example 187, 3-(3-ethyl-5-(piperidin-4-yl)-1H-indol-2-yl)imidazo[1,2-b]pyridazine], for which the pIC50 against human TLR8, against human TLR7 and on human TLR9 was 4.30 to 6.00 throughout.
As to `CC(C)c1c(-c2ccc3nccn3c2)[nH]c2ccc(C3CCNCC3)cc12` [Example 188, 6-(3-isopropyl-5-(piperidin-4-yl)-1H-indol-2-yl)imidazo[1,2-a]pyridine], the pIC50 is 6.00 to 7.00 against human TLR8, greater than 7.00 against human TLR7 and 6.00 to 7.00 against human TLR9.
With `FC(F)Cc1c(-c2ccn3ccnc3c2)[nH]c2ccc(C3CCNCC3)cc12` [Example 189, 7-(3-(2,2-difluoroethyl)-5-(piperidin-4-yl)-1H-indol-2-yl)imidazo[1,2-a]pyridine], the negative-log IC50 (pIC50) was 6.00 to 7.00 on human TLR8, greater than 7.00 against human TLR7 and greater than 7.00 at human TLR9.
Take `CC(C)c1c(-c2ccc3ncccc3c2)[nH]c2ccc(C3CCNCC3)cc12` [Example 190, 6-(3-isopropyl-5-(piperidin-4-yl)-1H-indol-2-yl)quinoline]: the values for the pIC50 on human TLR8, against human TLR7 and at human TLR9 were 4.30 to 6.00, greater than 7.00 and 4.30 to 6.00, respectively.
`CC(C)c1c(-c2ncnn3cccc23)[nH]c2ccc(C3CCNCC3)cc12` [Example 191, 4-(3-isopropyl-5-(piperidin-4-yl)-1H-indol-2-yl)pyrrolo[2,1-f][1,2,4]triazine]: the pIC50 on human TLR8, against human TLR7 and against human TLR9 was 6.00 to 7.00 throughout.
